From patent US8741897B2, “Glucocorticoid mimetics, methods of making them, pharmaceutical compositions and uses thereof” (Boehringer Ingelheim Pharmaceuticals Inc., priority 2003, dated 2014)

How the values were obtained:
[1] = target: T1, human glucocorticoid receptor (GR) complex (Homo sapiens, UniProt P04150); assay: Glucocorticoid receptor competitive binding assay (fluorescence polarization, TAMRA-labeled dexamethasone probe); details: compounds of Formula (IA)
T1 construct: made in house; host or cells: insect expression system (baculovirus lysate)
T1 sequence (P04150 1-777): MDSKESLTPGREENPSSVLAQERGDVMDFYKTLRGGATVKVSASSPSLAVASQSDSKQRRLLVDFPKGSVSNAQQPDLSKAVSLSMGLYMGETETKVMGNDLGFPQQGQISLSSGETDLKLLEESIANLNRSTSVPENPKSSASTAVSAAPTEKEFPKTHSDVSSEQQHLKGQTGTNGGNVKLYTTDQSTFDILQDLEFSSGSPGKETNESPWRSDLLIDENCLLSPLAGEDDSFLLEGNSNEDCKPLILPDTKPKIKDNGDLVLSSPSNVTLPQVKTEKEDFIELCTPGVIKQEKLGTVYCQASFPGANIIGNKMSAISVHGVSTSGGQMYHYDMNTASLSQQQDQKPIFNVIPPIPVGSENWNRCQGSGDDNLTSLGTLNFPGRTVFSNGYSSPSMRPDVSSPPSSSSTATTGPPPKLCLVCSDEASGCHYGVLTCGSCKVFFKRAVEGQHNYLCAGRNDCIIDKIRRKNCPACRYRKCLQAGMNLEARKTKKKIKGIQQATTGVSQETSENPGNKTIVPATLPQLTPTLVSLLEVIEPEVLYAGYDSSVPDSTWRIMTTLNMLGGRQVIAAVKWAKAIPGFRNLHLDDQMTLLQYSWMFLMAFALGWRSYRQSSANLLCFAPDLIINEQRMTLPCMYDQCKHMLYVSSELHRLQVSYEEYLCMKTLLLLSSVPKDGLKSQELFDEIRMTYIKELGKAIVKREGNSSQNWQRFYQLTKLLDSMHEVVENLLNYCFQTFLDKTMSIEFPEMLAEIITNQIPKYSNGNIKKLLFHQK
Summary of the method: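 Fluorescence-polarization competition against 15 nM TAMRA-dexamethasone (stock added to the mix) for human GR complex from baculovirus lysate diluted 1:170. Buffer: 10 mM TES, 50 mM KCl, 20 mM Na2MoO4, 1.5 mM EDTA, 0.04% CHAPS, 10% glycerol, 1 mM DTT, pH 7.4. IC50 from 4-parameter logistic fit.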

[2] = tested on: glucocorticoid receptor function; assay: one or more of the above assays (GR binding and glucocorticoid receptor cell assays: aromatase, IL-6, TAT, MMTV-Luc, IL-8, ICAM-Luc); assay type: cell-based; details: assay not specified per compound

Row | SMILES | activity in the GR binding assay [1] | activity as agonists of the glucocorticoid receptor function in one or more of the above assays [2]
1 | COc1ccc(F)cc1C(C)(C)CC(O)(Cc1cc2cnccc2[nH]1)C(F)F (stereo not drawn) [1,1-Difluoro-4-(5-fluoro-2-methoxyphenyl)-4-methyl-2-(1H-pyrrolo[3,2-c]pyridin-2-ylmethyl)pentan-2-ol] | potent activity | potent agonists
2 | Cc1cc(CC(O)(CC(C)(C)c2cccc(F)c2)C(F)(F)F)cc(C)n1 (stereo not drawn) [2-(2,6-Dimethylpyridin-4-ylmethyl)-1,1,1-trifluoro-4-(3-fluorophenyl)-4-methylpentan-2-ol] | potent activity | potent agonists
3 | CC(C)(CC(O)(Cc1cc2cc(C(=O)N3CCOCC3)ccc2[nH]1)C(F)(F)F)c1cc(Br)cc2c1OCC2 (stereo not drawn) [{2-[4-(5-Bromo-2,3-dihydrobenzofuran-7-yl)-2-hydroxy-4-methyl-2-trifluoromethylpentyl]-1H-indol-5-yl}morpholin-4-ylmethanone] | potent activity | potent agonists
4 | CC(C)(CC(O)(Cc1ccnc2ccccc12)C(F)(F)F)c1ccccc1F (stereo not drawn) [1,1,1-Trifluoro-4-(2-fluorophenyl)-4-methyl-2-quinolin-4-ylmethylpentan-2-ol] | potent activity | potent agonists
5 | CC(C)(CC(O)(Cc1cc2ccccc2[nH]1)C(F)(F)F)c1ccccc1C(F)(F)F (stereo not drawn) [1,1,1-Trifluoro-2-(1H-indol-2-ylmethyl)-4-methyl-4-(2-trifluoromethylphenyl)pentan-2-ol] | potent activity | potent agonists
6 | CC(C)(CC(O)(Cc1cc2cc(C#N)ccc2[nH]1)C(F)(F)F)c1cccc(C2OCCO2)c1 (stereo not drawn) [2-[4-(3-[1,3]Dioxolan-2-ylphenyl)-2-hydroxy-4-methyl-2-trifluoromethylpentyl]-1H-indole-5-carbonitrile] | potent activity | potent agonists
7 | CC(C)(CC(O)(Cc1cc2cnccc2[nH]1)C(F)(F)F)c1cc(F)cc2c1OCC2 (stereo not drawn) [1,1,1-Trifluoro-4-(5-fluoro-2,3-dihydrobenzofuran-7-yl)-4-methyl-2-(1H pyrrolo[3,2-c]pyridin-2-ylmethyl)pentan-2-ol] | potent activity | potent agonists
8 | Cc1c(CC(O)(CC(C)(C)c2cc(Cl)cc3c2OCC3)C(F)(F)F)[nH]c2cnccc12 (stereo not drawn) [4-(5-Chloro-2,3-dihydrobenzofuran-7-yl)-1,1,1-trifluoro-4-methyl-2-(3-methyl-1H-pyrrolo[2,3-c]pyridin-2-ylmethyl)pentan-2-ol] | potent activity | potent agonists
9 | CC(C)(CC(O)(Cc1ccnc2ccccc12)C(F)(F)F)c1ccc(C(F)(F)F)cc1 (stereo not drawn) [1,1,1-Trifluoro-4-methyl-2-quinolin-4-ylmethyl-4-(4-trifluoromethylphenyl)pentan-2-ol] | potent activity | potent agonists
10 | COc1ccc(F)cc1C(C)(C)CC(O)(Cc1ccnc2cc(C)ccc12)C(F)(F)F (stereo not drawn) [1,1,1-Trifluoro-4-(5-fluoro-2-methoxyphenyl)-4-methyl-2-(7-methylquinolin-4-ylmethyl)pentan-2-ol] | potent activity | potent agonists
11 | Cc1cc2[nH]c(CC(O)(CC(C)(C)c3cc(F)ccc3C)C(F)(F)F)cc2c(C)n1 (stereo not drawn) [2-(4,6-Dimethyl-1H-pyrrolo[3,2-c]pyridin-2-ylmethyl)-1,1,1-trifluoro-4-(5-fluoro-2-methylphenyl)-4-methylpentan-2-ol] | potent activity | potent agonists
12 | COc1ccc(F)cc1C(C)(C)CC(O)(Cc1cc2c(OC)ncnc2[nH]1)C(F)(F)F (stereo not drawn) [1,1,1-Trifluoro-4-(5-fluoro-2-methoxyphenyl)-2-(4-methoxy-7H-pyrrolo[2,3-d]pyrimidin-6-ylmethyl)-4-methylpentan-2-ol] | potent activity | potent agonists
13 | COc1ccc(F)cc1C(C)(C)CC(O)(Cc1cc2c(C)nccc2[nH]1)C(F)(F)F (stereo not drawn) [1,1,1-Trifluoro-4-(5-fluoro-2-methoxyphenyl)-4-methyl-2-(4-methyl-1H pyrrolo[3,2-c]pyridin-2-ylmethyl)pentan-2-ol] | potent activity | potent agonists
14 | CC(C)(CC(O)(Cc1cc2cc(C(F)(F)F)ccc2[nH]1)C(F)(F)F)c1cc(F)ccc1O (stereo not drawn) [4-Fluoro-2-[4,4,4-trifluoro-3-hydroxy-1,1-dimethyl-3-(5-trifluoromethyl-1H-indol-2-ylmethyl)butyl]phenol] | potent activity | potent agonists
15 | Cc1ccc(C(C)(C)CC(O)(Cc2cc3ccccc3[nH]2)C(F)(F)F)cc1C (stereo not drawn) [4-(3,4-Dimethylphenyl)-1,1,1-trifluoro-2-(1H-indol-2-ylmethyl)-4-methylpentan-2-ol] | potent activity | potent agonists
16 | COc1ccc(C)cc1C(C)(C)CC(O)(Cc1ccnc2ccccc12)C(F)(F)F (stereo not drawn) [1,1,1-Trifluoro-4-(2-methoxy-5-methylphenyl)-4-methyl-2-quinolin-4-ylmethylpentan-2-ol] | potent activity | potent agonists
17 | Cc1cc(CC(O)(CC(C)(C)c2ccc(F)cc2)C(F)(F)F)cc(C)n1 (stereo not drawn) [2-(2,6-Dimethylpyridin-4-ylmethyl)-1,1,1-trifluoro-4-(4-fluorophenyl)-4-methylpentan-2-ol] | potent activity | potent agonists
18 | Cc1cc2[nH]c(CC(O)(CC(C)(C)c3cc(F)ccc3C)C(F)(F)F)cc2cn1 (stereo not drawn) [1,1,1-Trifluoro-4-(5-fluoro-2-methylphenyl)-4-methyl-2-(6-methyl-1H-pyrrolo[3,2-c]pyridin-2-ylmethyl)pentan-2-ol] | potent activity | potent agonists
19 | Cc1ccccc1C(C)(C)CC(O)(Cc1ccnc2ccccc12)C(F)(F)F (stereo not drawn) [1,1,1-Trifluoro-4-methyl-2-quinolin-4-ylmethyl-4-o-tolylpentan-2-ol] | potent activity | potent agonists
20 | COc1ccc(F)cc1C(C)(C)CC(O)(c1c(F)ccc2c(C)ccnc12)C(F)(F)F (stereo not drawn) [1,1,1-Trifluoro-4-(5-fluoro-2-methoxyphenyl)-2-(7-fluoro-4-methylquinolin-8-yl)-4-methylpentan-2-ol] | potent activity | potent agonists
21 | CC(C)(CC(O)(Cc1cc2cnccc2[nH]1)C(F)(F)F)c1cc(Br)cc2c1OCC2 (stereo not drawn) [4-(5-Bromo-2,3-dihydrobenzofuran-7-yl)-1,1,1-trifluoro-4-methyl-2-(1H-pyrrolo[3,2-c]pyridin-2-ylmethyl)pentan-2-ol] | potent activity | potent agonists
22 | Cc1cc(CC(O)(CC(C)(C)c2cccc3c2OCC3)C(F)(F)F)cc(C)n1 (stereo not drawn) [4-(2,3-Dihydrobenzofuran-7-yl)-2-(2,6-dimethylpyridin-4-ylmethyl)-1,1,1-trifluoro-4-methylpentan-2-ol] | potent activity | potent agonists
23 | COc1ccc(F)cc1C(C)(C)CC(O)(Cc1cc2cc(Cl)nc(Cl)c2[nH]1)C(F)(F)F (stereo not drawn) [2-(5,7-Dichloro-1H-pyrrolo[2,3-c]pyridin-2-ylmethyl)-1,1,1-trifluoro-4-(5-fluoro-2-methoxyphenyl)-4-methylpentan-2-ol] | potent activity | potent agonists
24 | CC(C)(CC(O)(Cc1cc2ccccc2[nH]1)C(F)(F)F)c1cccc(Br)c1 (stereo not drawn) [4-(3-Bromophenyl)-1,1,1-trifluoro-2-(1H-indol-2-ylmethyl)-4-methylpentan-2-ol] | potent activity | potent agonists
